Experimental data as given in US12090128B2, “Dispersible formulations of n-((r)-2,3-dihydroxypropoxy)-3,4-difluoro-2-(2-fluoro-4-iodo-phenylamino)-benazmide and uses thereof” (SpringWorks Therapeutics, Inc., priority 2021, dated 2024).

Assay: Storage stability of crystalline Form IV by XRPD and/or DSC
Format: physicochemical
Method: FIG. 3A is an XRPD corresponding to essentially pure Form IV of N—((R)-2,3-dihydroxypropoxy)-3,4-difluoro-2-(2-fluoro-4-iodo-phenylamino)-benzamide after storage for 68 months after production at 25° C. and ≤65% relative humidity.
FIG. 3B is an XRPD corresponding to essentially pure Form IV of N—((R)-2,3-dihydroxypropoxy)-3,4-difluoro-2-(2-fluoro-4-iodo-phenylamino)-benzamide after storage for 140 months after production at 25° C. and ≤65% relative humidity.
In some aspects, the XRPD pattern is generated using a PANALYTICAL® X'Pert Pro diffractometer using Ni-filtered Cu Kα (45 kV/40 mA) radiation and a step size of 0.03° 2θ with a X′CELERATOR® Real Time Multi-Strip detector, configured (a) on the incidental beam side as follows: variable divergence slits (10 mm irradiated length), 0.04 rad Soller slits, fixed anti-scatter slit (0.50°), and 10 mm beam mask, and (b) on the diffracted beam side as follows: variable anti-scatter slit (10 mm observed length) and 0.04 rad Soller slit or a BRUKER® D8® ADVANCE™ system using Cu Kα (40 kV/40 mA) radiation and a step size of 0.03° 2θ with a LYNXEYE™ detector, configured (a) on the incidental beam side as follows: Goebel mirror, mirror exit slit (0.2 mm), 2.5° Soller slit, beam knife, and (b) on the diffracted beam side as follows: anti-scatter slit (8 mm) and 2.5° Soller slit; wherein samples are mounted flat on zero-background Si wafers. […]

XRPD pattern and/or DSC profile after storage (storage for 68 months at standard warehouse conditions (15° C.-25° C. and ≤65% relative humidity), FIG. 3A): substantially unchanged
XRPD pattern and/or DSC profile after storage (storage for ≥140 months at standard warehouse conditions (15° C.-25° C. and ≤65% relative humidity), FIG. 3B): substantially unchanged
Structure (SMILES): O=C(NOC[C@H](O)CO)c1ccc(F)c(F)c1Nc1ccc(I)cc1F [essentially pure Form IV, N—((R)-2,3-dihydroxypropoxy)-3,4-difluoro-2-(2-fluoro-4-iodo-phenylamino)-benzamide]
